Activity calls are given as the source filed them. How the calls were made is not given here.
What follows are compounds tested on HepG2 cytotoxicity (assay: HepG2 cell cytotoxicity, cytotoxicity control (AID 1159563)).

Question: Which IC50 does the source give for `N#Cc1cc(N2CCCC2=O)ccc1Sc1ccccc1CO` here?
Answer: Its IC50 is > 100 µM (inactive).

Question: For `Cc1ccc(S(=O)(=O)Nc2ccc(CN3CCN(C(=O)c4cccc(C#N)c4)CC3)cc2)cc1`, which IC50 is on record?
Answer: The IC50 was > 100 µM (inactive).

Question: Which IC50 does the source give for `Clc1cc(Br)ccc1OCCCCn1ccnc1` here?
Answer: Its IC50 is 50 µM.

Question: `N#Cc1cccc(CN2CCC(c3nc(-c4ccc(C(F)(F)F)nc4)no3)CC2)c1` was tested. Which IC50 did it give?
Answer: Its IC50 is > 100 µM (inactive).

Question: For `COc1cnc2ccc(=O)n(CCN3CCC(NC(=O)c4ccc(Cl)cc4)CC3)c2c1`, which IC50 is on record?
Answer: Its IC50 is > 100 µM (inactive).

Question: How did the IC50 turn out when `CC(C)c1cc(Nc2cc(Cc3ccccc3)nc(NC3CCC(O)CC3)n2)n[nH]1` (stereo not given) was run?
Answer: The IC50 was 32 µM.

Question: `CCN(Cc1nc2ccc(C(=O)N3CCN(c4ncccn4)CC3)cc2[nH]1)C1CCCc2cccnc21` (stereo not given) was tested. Which IC50 did it give?
Answer: Its IC50 is > 100 µM (inactive).

Question: For `COc1cnc2ccc(=O)n(CCN3CCC(NC(=O)Cc4ccc(Cl)c(Cl)c4)CC3)c2c1`, which IC50 is on record?
Answer: The IC50 was 63 µM.

Question: For `Cc1cc(C)c(C#N)c(SCC(=O)c2ccc3c(c2)OCO3)n1`, which IC50 is on record?
Answer: Its IC50 is > 100 µM (inactive).

Question: For `O=C(NCC1CCCCN1C(=O)c1cccc2ccccc12)c1ccccc1` (stereo not given), which IC50 is on record?
Answer: Its IC50 is > 100 µM (inactive).

Question: With `Cc1cccc(N2CCCN(Cc3c[nH]c4ccccc34)CC2)n1` as the compound, how does the IC50 read?
Answer: The IC50 was 13 µM.

Question: For `CCc1cccc(CC)c1-n1c(SCC(=O)N2CC(=O)Nc3ccccc32)nnc1-c1cccnc1`, which IC50 is on record?
Answer: The IC50 was > 100 µM (inactive).

Question: Which IC50 does the source give for `CC(C)Oc1ccc(C(=O)Nc2ccc(N3CCOCC3)c(Cl)c2)cc1` here?
Answer: The IC50 was 32 µM.

Question: For `CC(=O)Nc1cccc(Nc2ncnc3nc[nH]c23)c1`, which IC50 is on record?
Answer: Its IC50 is > 100 µM (inactive).

Question: With `CNC(=O)Oc1ccc(C(=O)NCc2ccccc2)cc1OC(=O)NC` as the compound, how does the IC50 read?
Answer: Its IC50 is > 100 µM (inactive).

Question: With `Cc1ccc2c(c1)-c1onc(C(=O)N3CCCCC3c3cccnc3)c1CO2` (stereo not given) as the compound, how does the IC50 read?
Answer: The IC50 was 50 µM.

Question: Which IC50 does the source give for `COc1ccccc1C(=O)Nc1nnc(-c2ccc3c(c2)OCO3)s1` here?
Answer: Its IC50 is > 100 µM (inactive).

Question: `CC1=NN(C(=O)CCn2cnc([N+](=O)[O-])n2)C(O)(C(F)(F)F)C1` (stereo not given) was tested. Which IC50 did it give?
Answer: The IC50 was > 100 µM (inactive).

Question: Which IC50 does the source give for `O=C1NCc2cccc(Nc3nc(NC4CCC(O)CC4)ncc3Br)c21` (stereo not given) here?
Answer: The IC50 was > 100 µM (inactive).

Question: With `Cc1ccc(C)c(CN2C(=O)NC3(CCc4ccccc43)C2=O)c1` (stereo not given) as the compound, how does the IC50 read?
Answer: Its IC50 is > 100 µM (inactive).

Question: `CCC(=O)N1N=C(c2ccc3c(c2)CCCC3)Sc2c1ncn2C(=O)CC` was tested. Which IC50 did it give?
Answer: Its IC50 is > 100 µM (inactive).

Question: How did the IC50 turn out when `Cc1cc(N(C)C)nc(Nc2ccccc2C)n1` was run?
Answer: Its IC50 is 63 µM.

Question: Which IC50 does the source give for `O=C(NCC1CCCCC1)c1cc(=O)c2ccccc2o1` here?
Answer: Its IC50 is 25 µM.

Question: Which IC50 does the source give for `c1ccc(-c2nc(NCc3ccco3)c3ccccc3n2)nc1` here?
Answer: The IC50 was > 100 µM (inactive).

Question: With `COc1ccc(CN2C(=O)C(O)(CC(=O)c3ccncc3)c3cc(Br)ccc32)cc1OC` (stereo not given) as the compound, how does the IC50 read?
Answer: Its IC50 is 40 µM.

Question: How did the IC50 turn out when `O=C(Nc1ncc([N+](=O)[O-])s1)C1CC1` was run?
Answer: The IC50 was > 100 µM (inactive).

Question: Which IC50 does the source give for `COCCn1c(-c2ccccc2)cnc1NCc1ccccc1OC` here?
Answer: The IC50 was 20 µM.

Question: `COc1cccc2sc(CN(C)C(=O)C3CNCCN3c3ccc(F)cc3)c(C)c12` (stereo not given) was tested. Which IC50 did it give?
Answer: The IC50 was 13 µM.

Question: For `Cc1ccc(C)c(OC2CCN(C(=O)C(C)n3ccnc3)CC2)c1` (stereo not given), which IC50 is on record?
Answer: The IC50 was > 100 µM (inactive).

Question: Which IC50 does the source give for `c1cncc(CN(Cc2ccco2)Cc2cn[nH]c2-c2cccs2)c1` here?
Answer: The IC50 was > 100 µM (inactive).

Question: `O=C(NCCc1csc(-c2ccc(F)cc2)n1)c1ccco1` was tested. Which IC50 did it give?
Answer: Its IC50 is > 100 µM (inactive).

Question: For `Oc1c(-c2n[nH]c(Cc3ccc(Cl)cc3)n2)ncc2cccnc12`, which IC50 is on record?
Answer: The IC50 was 40 µM.

Question: For `CC1CCCN(S(=O)(=O)c2ccc(C(=O)Nc3nc(-c4ccccn4)cs3)cc2)C1` (stereo not given), which IC50 is on record?
Answer: Its IC50 is 40 µM.

Question: `NC(=O)c1ccc(-c2cccc(OCCN3CCN(C4CCCCC4)CC3)c2)cc1` was tested. Which IC50 did it give?
Answer: The IC50 was 50 µM.

Question: How did the IC50 turn out when `CCC(=O)Nc1ccccc1C(=O)Nc1ccccn1` was run?
Answer: Its IC50 is > 100 µM (inactive).

Question: `O=c1[nH]ccc2ccc(-c3ccncc3)cc12` was tested. Which IC50 did it give?
Answer: Its IC50 is > 100 µM (inactive).

Question: With `O=C(Nc1ccc(C(F)(F)F)cc1)Nc1cccc([N+](=O)[O-])c1` as the compound, how does the IC50 read?
Answer: The IC50 was 10 µM.

Question: With `OC[C@@H](Nc1nccc(-c2c(-c3ccc(F)cc3)ncn2C2CCNCC2)n1)c1ccccc1` as the compound, how does the IC50 read?
Answer: The IC50 was 100 µM.

Question: With `CCOc1cnn(C)c(=O)c1Nc1ccc(C(=O)NCc2ccc(F)cc2)cc1` as the compound, how does the IC50 read?
Answer: Its IC50 is > 100 µM (inactive).

Question: With `COc1cc(OC)cc(C(=O)N[C@@H](CC(C)C)C(=O)NC2(C#N)CC2)c1` as the compound, how does the IC50 read?
Answer: The IC50 was > 100 µM (inactive).

Question: `O=C(CCCNC(=O)c1ccc(Cl)cc1)Nc1nc(-c2ccccn2)cs1` was tested. Which IC50 did it give?
Answer: The IC50 was > 100 µM (inactive).

Question: For `COc1cc(-c2noc(CC#N)n2)ccc1OC(F)F`, which IC50 is on record?
Answer: Its IC50 is > 100 µM (inactive).

Question: How did the IC50 turn out when `CC1=C(C(=O)Nc2ccc(Cl)cc2)C(c2ccncc2)n2ncc(C(=O)Nc3ccccc3)c2N1` (stereo not given) was run?
Answer: The IC50 was 79 µM.

Question: Which IC50 does the source give for `COc1cc(C(C)C)c(S(C)(=O)=O)cc1C(=O)N1CCN(c2ccccc2Cl)CC1` here?
Answer: Its IC50 is > 100 µM (inactive).

Question: How did the IC50 turn out when `CCN(CC)c1ncc(C(=O)c2ccc([N+](=O)[O-])o2)s1` was run?
Answer: Its IC50 is 16 µM.

Question: How did the IC50 turn out when `O=C(CN(Cc1ccccn1)Cc1ccccn1)NC1Cc2ccccc2C1` was run?
Answer: Its IC50 is > 160 µM (inactive).

Question: For `COc1cccc(NS(=O)(=O)c2ccc3[nH]cc(C(=O)NCCC(C)C)c(=O)c3c2)c1`, which IC50 is on record?
Answer: The IC50 was 32 µM.

Question: For `Cc1ccccc1NS(=O)(=O)c1ccc2[nH]cc(C(=O)NC3CCCC(C)C3C)c(=O)c2c1` (stereo not given), which IC50 is on record?
Answer: The IC50 was 40 µM.

Question: For `COc1ccc(C(=O)Nc2c(C)nn(COc3cccc(C(F)(F)F)c3)c2C)cc1`, which IC50 is on record?
Answer: The IC50 was > 100 µM (inactive).

Question: `CCS(=O)(=O)c1cccc(C(=O)Nc2nc(-c3ccccn3)cs2)c1` was tested. Which IC50 did it give?
Answer: The IC50 was 25 µM.

From PubChem BioAssay AID1159563 (GlaxoSmithKline (GSK), 2015)
